Literature values in US8968799B2, “Time delayed release mechanism for energizing composition and method of use” (Rise-N-Shine L.L.C., priority 2006, dated 2015).

Tests used:
[1] = particularly as methylcobalamin; healthy men and women
[2] = cold, fatigue, sleep deprivation

| SMILES | effect on sleep time, sleep quality and daytime alertness [1] | effect on cognitive performance and mood under acute stress [2] |
| --- | --- | --- |
| C/C1=C2/[N-][C@H]([C@H](CC(N)=O)[C@@]2(C)CCC(=O)NC[C@@H](C)OP(=O)([O-])O[C@H]2[C@@H](O)[C@@H](n3cnc4cc(C)c(C)cc43)O[C@@H]2CO)[C@]2(C)N=C(/C(C)=C3N=C(/C=C4N=C1[C@@H](CCC(N)=O)C\4(C)C)[C@@H](CCC(N)=O)[C@]\3(C)CC(N)=O)[C@@H](CCC(N)=O)[C@]2(C)CC(N)=O.[CH3-].[Co+3] [vitamin B12, methylcobalamin] | decrease sleep time yet improve sleep quality and daytime alertness | – |
| N[C@@H](Cc1ccc(O)cc1)C(=O)O [Tyrosine, 4-hydroxyphenylalanine] | – | appears to prevent the substantial decline |
